# Experimental data from paper PMC3072269 (Journal of medicinal chemistry, 2010).
# Entries after “also recorded” stand apart in the source; their conditions may differ. Like-named read-outs stand apart in the source and are kept apart here.
# Tests used:
# PTEN mRNA = assay: Quantitative RT-PCR analysis of PTEN mRNA splicing in mouse tissues; assay type: in vivo, Balb/c mice; details: for PTEN mRNA in liver, quantitative RT-PCR: i.p. 3x/wk, 7 at 25 mg/kg, 1 at 40 mg/kg, PNAs 10 or 40 mg/kg
# PTEN protein = assay: Western blot analysis of PTEN protein in mouse tissues; assay type: in vivo, Balb/c mice; details: 7 at 25 mg/kg, i.p. 3x/wk, 2 wks
# PTEN = details: mice, determined in a previous study, cited from earlier work
# [1] = test system: CD40 cell surface protein expression; details: read-out: IC50, CD40 cell surface protein expression; flow cytometry, FITC labeled antiCD40 antibody; cited from earlier work
# PTEN RNA = assay: Quantitative RT-PCR of PTEN RNA splicing in BCL1 cells; assay type: cell-based, murine; details: data not shown
# [2] = amphipathic peptide study, dosing as in Table 6
substance,measurement,setting,value
"1: uniform 2′-O-MOE phosphorothioate 20-mer CTCAGCACATCTACAAGAAA, PTEN intron 3:exon 4 (all 2'-MOE, all phosphorothioate, methylation of C not given here) [Compound 1, reference compound]","PTEN mRNA in liver, quantitative RT-PCR",PTEN mRNA; 2 wks,modest downregulation of full length transcript with upregulation of the alternatively spliced product
"7: antiPTEN phosphorothioate oligonucleotide with 2′-O-MOE wings and a 2′-deoxyribonucleotide gap, CTGCTAGCCTCTGGATTTGA, exon 9 [Compound 7]","PTEN mRNA in liver, quantitative RT-PCR",PTEN mRNA; 2 wks,downregulation of total PTEN message (both isoforms)
same,"PTEN protein in adipose tissue, western blot",PTEN protein; 9 at high dose (40 mg/kg),significant and comparable downregulation of PTEN protein
same,"PTEN protein expression in liver, western blot",PTEN protein; PNAs 10 or 40 mg/kg,significant inhibition of PTEN protein expression
same,EC50,PTEN; read-out: Adipose EC50,0.7 to 1.4 µM
same,EC50,PTEN; read-out: Liver EC50,14 µM
(Lys)2-TKCTCAGCACATCTACA-Lys [Compound 10],"PTEN mRNA splicing in white adipose tissue, quantitative RT-PCR","PTEN mRNA; 10 or 40 mg/kg i.p., 3x/wk, 2 wks",marginal with the alternatively spliced isoform being upregulated but the full length transcript being unaltered; also recorded: inactive at both doses
CACAGATGACATTAG-Lys [Compound 8],IC50,[1],0.9 µM
CTCAGCACATCTACA-Lys [Compound 3],alteration of splicing of PTEN RNA,PTEN RNA,full length transcript was reduced and the alternatively spliced product was enhanced
D-(KKLLKAALKLAKKG)-TKCTCAGCACATCTACA-Lys [Compound 14],"PTEN splicing activity in adipose tissue, quantitative RT-PCR",PTEN mRNA; [2],showed activity at the low dose
same,"PTEN splicing activity in kidney, quantitative RT-PCR",PTEN mRNA; [2],"comparable to the octa(L-lysine) conjugate 9, even when administered at an approximately 4.5-fold lower dose"
same,"histopathological examination of the kidneys, low dose group","Tolerability in mice; 8.25 mg/kg i.p., 3x/wk, 2 wks",nephrotoxicity with proximal tubule necrosis and regeneration
same,"liver morphology, high dose group",Tolerability in mice; 33 mg/kg i.p.,appeared normal
same,"spleen size, high dose group",Tolerability in mice; 33 mg/kg i.p.,drastically reduced spleen sizes
same,"histopathological examination of the kidneys, high dose group","Tolerability in mice; 33 mg/kg i.p., single administration",profound proximal tubule necrosis and proteinacous accumulation in Henle’s loop and collecting tubules
same,"body weight, high dose group","Tolerability in mice; 33 mg/kg i.p., arm terminated prematurely","rapid weight loss after administration of the first dose, indicative of acute toxicity"
